In paper PMC10059848, “Inhibition Kinetics and Theoretical Studies on Zanthoxylum chalybeum Engl. Dual Inhibitors of α-Glucosidase and α-Amylase” (Journal of Xenobiotics, 2023):

Key:
[1] = target: T1, porcine pancreas α-amylase (Sus scrofa, UniProt P00690); assay: Inhibition kinetics of α-amylase (Lineweaver–Burk and Dixon plots); details: for Inhibition Mode, α-Amylase: Lineweaver–Burk plots
T1 sequence (P00690 16-511): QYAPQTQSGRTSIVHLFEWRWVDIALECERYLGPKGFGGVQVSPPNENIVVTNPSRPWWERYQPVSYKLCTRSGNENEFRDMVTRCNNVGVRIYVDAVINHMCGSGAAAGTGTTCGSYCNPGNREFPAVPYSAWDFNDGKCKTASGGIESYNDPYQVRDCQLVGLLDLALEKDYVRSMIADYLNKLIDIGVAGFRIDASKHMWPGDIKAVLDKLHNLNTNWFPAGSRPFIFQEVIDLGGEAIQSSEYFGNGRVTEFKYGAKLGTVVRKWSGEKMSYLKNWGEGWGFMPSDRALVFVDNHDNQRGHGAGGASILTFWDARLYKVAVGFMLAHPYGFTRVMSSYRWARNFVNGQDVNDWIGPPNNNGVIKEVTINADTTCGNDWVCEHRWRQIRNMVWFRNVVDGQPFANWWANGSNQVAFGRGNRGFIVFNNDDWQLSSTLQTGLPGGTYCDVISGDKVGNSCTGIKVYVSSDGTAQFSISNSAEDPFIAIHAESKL
Source text: Using Lineweaver–Burk plots, the mode of inhibition was established, followed by secondary plots (Dixon plots) depending on the established mode of inhibition. The following equation was used to obtain the inhibition constants (Ki) [15]: v=Vmax ×S/Km(1+[I]/Ki)+S(1+[I]/αKi) where S and I are the concentrations of the substrate and inhibitor, respectively; Vmax is the maximum velocity; Km is the Michaelis–Menten constant; Ki is the competitive inhibition constant; and αKi is the uncompetitive inhibition constant.
Lineweaver–Burk plots on monoreplicate tests were performed followed by Dixon secondary plots to determine the inhibition constants. The means of the observed triplicate inhibition constants were subjected to analysis of variance with Tukey HSD/Tukey Kramer post-analysis to compare means. The least significant difference was considered at p < 0.05 and the coefficient of determination (R^2) was obtained as the average of the regression curves from Dixon plots of individual experiments.

[2] = target: yeast α-glucosidase (Saccharomyces cerevisiae, UniProt P53341); assay: Inhibition kinetics of α-glucosidase (Lineweaver–Burk and Dixon plots); type: biochemical; details: for Inhibition Mode, α-Glucosidase: Lineweaver–Burk plots
Chain of yeast α-glucosidase (P53341 whole entry): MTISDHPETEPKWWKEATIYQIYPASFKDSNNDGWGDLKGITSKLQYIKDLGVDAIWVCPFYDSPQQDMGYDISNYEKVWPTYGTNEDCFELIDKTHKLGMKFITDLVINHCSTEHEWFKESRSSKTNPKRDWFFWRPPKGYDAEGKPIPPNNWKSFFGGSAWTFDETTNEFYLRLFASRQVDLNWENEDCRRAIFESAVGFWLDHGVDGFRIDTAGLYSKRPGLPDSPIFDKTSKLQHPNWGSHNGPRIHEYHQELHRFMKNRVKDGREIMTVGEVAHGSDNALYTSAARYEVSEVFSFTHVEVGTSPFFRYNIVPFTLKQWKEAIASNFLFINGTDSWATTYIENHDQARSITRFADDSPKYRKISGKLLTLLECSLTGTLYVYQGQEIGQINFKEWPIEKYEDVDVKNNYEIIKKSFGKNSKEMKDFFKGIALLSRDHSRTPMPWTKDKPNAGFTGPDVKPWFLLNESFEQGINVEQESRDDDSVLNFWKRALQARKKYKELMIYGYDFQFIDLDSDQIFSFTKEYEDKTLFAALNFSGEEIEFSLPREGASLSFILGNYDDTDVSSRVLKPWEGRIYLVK

[3] = target: α-glycosidase; design: method as in PMID 32889048; details: read-out: IC50 against α-glycosidase; cited from earlier work
[4] = Lineweaver-Burk plot, competitive inhibition

Compound | Inhibition Mode, α-Amylase [1] | Inhibition Mode, α-Glucosidase [2] | IC50 [3] | 1/Vmax, α-amylase [1, 4] | 1/Vmax, α-glucosidase [2, 4]
6-hydroxy-N-methyldecarine [Compound 8] | Mixed | Mixed |  |  | 
C[C@H]1O[C@H](O[C@H]2[C@H](O)[C@@H](O)[C@@H](O[C@H]3[C@H](O)[C@@H](O)C(O)O[C@@H]3CO)O[C@@H]2CO)[C@H](O)[C@@H](O)[C@@H]1N[C@H]1C=C(CO)[C@@H](O)[C@H](O)[C@H]1O (stereo partly shown) [Acarbose, acarbose, reference compound] | Competitive | Competitive | 44.9 µM |  | 
CC(C)CNC(=O)/C=C/C/C=C/c1ccc2c(c1)OCO2 [Compound 1, Chalybemide A] | Non-competitive | Non-competitive |  |  | 
CC(C)(O)CNC(=O)/C=C/c1ccccc1 [Compound 2, chalybemide B] | Non-competitive | Uncompetitive |  |  | 
COc1ccc(CN(C)C(=O)c2ccccc2OC)cc1 [Compound 3, chalybemide C] | Non-competitive | Non-competitive |  |  | 
CC(C)CNC(=O)/C=C/c1ccc2c(c1)OCO2 [Compound 4, fagaramide] | Non-competitive | Non-competitive |  |  | 
COc1ccc2c(OC)c3ccoc3nc2c1OC [Compound 5, skimmianine] | Mixed | Mixed |  |  | 
COc1ccc2c(cnc3c4cc5c(cc4ccc23)OCO5)c1OC [Compound 6, norchelerythrine] | Mixed | Mixed |  |  | 
COc1cc(-c2cc3cc(/C=C/CO)cc(OC)c3o2)ccc1O [Compound 9, ailanthoidol] | Uncompetitive | Uncompetitive |  |  | 
OCC1OC1c1ccc2c(c1)OCO2 (stereo not shown) [Compound 10, 2,3-epoxy-6,7-methylenedioxyconiferol] | Competitive | Competitive |  | 24.47 s⁻¹ | 20.25 s⁻¹
c1cc2c(cc1C1OCC3C(c4ccc5c(c4)OCO5)OCC13)OCO2 (stereo not shown) [Compound 11, sesamine] | Non-competitive | non-competitive |  |  | 
